Results published in US20040132188A1, “Use of non-complexing peptides for the preparation of a composition for transfection of a polynucleotide into a cell and compositions useful in gene therapy” (priority 2001, published 2004).
Ends that are not written are not given here.

Legend:
[1] = Liposome leakage assay, POPC/cholesterol 3:2 liposomes; assay type: biochemical
Description: FIG. 9: Liposome leakage assay. […] Emitted fluorescence was plotted against peptide concentration. […] C) Comparison of ppTG1, ppTG20 and ppTG21 at pH 7.
Leakage activity was plotted against peptide concentration.

HeLa cells = assay: Transfection in vitro, luciferase plasmid pTG11236; assay type: cell-based
Description: Cells were plated on 24 well plates at a density of 4×10^4 (293-EBNA ) or 7×10^4 (HeLa, Renca) cells/well in DMEM supplemented with 10% FCS. The next day, the medium was replaced by 200 μl serum-free DMEM and plasmid (PTG11056 or pTG11236)/peptide complexes or plasmid/peptide/lipid complexes were prepared in 30 μl 0.9% NaCl or 5% glucose. After 20 min at room temperature these complexes were added to the cells which were then incubated for 2-3 h at 37° C. and 5% CO2 before 1 ml serum-containing DMEM was added. Approximately 20 hours later, cells were lysed by addition of 100 μl 1× Promega lysis buffer, 20 μl of the lysates were analysed for luciferase activity. Proteins were quantified with the bicinchonic acid (BCA) colorimetric method (Smith, Anal. Biochem. 150 (1985), 76-85). […]
HeLa cells were seeded at a density of 6×10^4 cells on 24 well plates. The next day, cells were incubated with 200 μl serum-free medium, 30 μl of plasmid (50 ng)/peptide/lipid mixtures were added and incubated for 3 h at 37° C. in 5% CO2. 1 ml of DMEM+10% FCS was then added. The next day, the medium was removed and cells were washed with 500 μl of PBS and subsequently treated with 100 μl of Promega lysis buffer. Plates were stored at −80° C. until luciferase activity was measured of 20 μl of the cell lysate. The protein assay was performed using the Pierce BCA kit.
JTS1 was dissolved to 1 mg/ml in 1 mM NaOH and mixed with DNA diluted in 5% glucose. ppTG1 was then added to this solution. The pcTG90/DOPE ppTG1 mixtures were prepared as described in Example 6. Transfection assays were performed on HeLa cells with 50 ng of plasmid as described in Example 6.
The series of ppTG1 derivatives listed in Material and Methods were tested for their gene transfer efficiencies in Hela cells. 6×10^4 cells were transfected with 50 ng pTG11236 complexed with increasing amounts of peptide. Luciferase activity was analyzed day 1 after transfection. The results are shown in FIG. 10B (ppTG20, ppTG21), FIG. 10C (ppTG25, ppTG26, ppTG27), FIG. 10D (ppTG28 to ppTG33), FIG. 10E (PEG-ppTG1 and PEG-ppTG20), FIG. 10F (ppTG22 to ppTG24) and FIG. 10G (ppTG20-D).

[2] = Liposome leakage assay, POPC/cholesterol 3:2 liposomes; assay type: biochemical; details: POPC/chol liposomes, pH 5

In the case of GLFKALLKLLKSLWKLLLKA, the “liposome leakage activity” value ([1]; POPC/Chol (3:2) liposomes, pH not separated (compared at pH 5 and pH 7)) is reported as “destabilizes efficiently”, the “liposome leakage activity / calcein release” value ([1]; POPC/chol liposomes, pH 7) is reported as “efficiently liberate calcein” and the “liposome leakage of peptide/plasmid pTG11236 complexes” value ([1]; charge ratios (P/N) of 1 or 0.8, pH 7) is reported as “slightly reduced”. The “liposome leakage of peptide/plasmid pTG11236 complexes” value ([1]; excess of peptide, P/N 5 or 10, pH 7) was “comparable to free ppTG1”, the “improvement of the transfection efficiency of pcTG90/DOPE” value (HeLa cells; 50 ng plasmid, final charge ratio 3, 5 and 10, ppTG1 contributing 1/3, 1/5 and 1/10 of the positive charge) was “at least 1 log” and the “improvement of the transfection efficiency of pcTG90/DOPE” value (HeLa cells; 50 ng plasmid, final charge ratio 5 and 10, ppTG1 contributing 2/3 and 7/10 of the positive charge) was 2 log. For the same sequence, the “transfection, peptide alone” value (HeLa cells; 50 ng plasmid, final charge ratio of 3) was “better results than pcTG90/DOPE alone”, the “comparison as transfection reagent” value (HeLa cells; 0.5 μg or 0.05 μg pTG11236) was “better transfection reagent than JTS-1-K13” and the luciferase activities (HeLa cells; 0.5 μg or 0.05 μg pTG11236 with 1.17 μg or 0.117 μg peptide, charge ratio 1.8) was “comparable luciferase activities as observed for DNA formulated with Lipofectin”. For the same sequence, the “more efficient than the complex comprising KALA” value (HeLa cells; HeLa cells, in the best case) was 3000 fold and the “liposome leakage activity / calcein release” value [2] was “efficiently liberate calcein”.
